Reference: PubChem BioAssay (NCI)
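Protocol summary: plate cells (96-well), add compound at 5 concentrations, incubate 48 h, interpolate endpoints linearly. TGI is the concentration that stops growth completely.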

Assays:
Assay in all cases: inhibition of tumour cell growth, NCI panel, 48 h
[1] = test system: NCI-H460 lung
[2] = test system: A549 NSCLC
[3] = test system: SF-539 CNS
[4] = test system: LOX IMVI melanoma
[5] = test system: NCI-H226 lung
[6] = test system: OVCAR-8 ovarian
[7] = test system: OVCAR-3 ovarian
[8] = test system: COLO 205 colon
[9] = test system: UACC-62 melanoma
[10] = test system: SN12C renal
[11] = test system: CAKI-1 renal
[12] = test system: SNB-78 CNS
[13] = test system: NCI-H522 lung
[14] = test system: RPMI-8226 leukemia
[15] = test system: IGROV1 ovarian
[16] = test system: SF-268 CNS
[17] = test system: ACHN renal
[18] = test system: CCRF-CEM leukemia
[19] = test system: HL-60(TB) leukemia
[20] = test system: 786-0 renal
[21] = test system: RXF 393 renal
[22] = test system: HOP-18 NSCLC
[23] = test system: K-562 leukemia
[24] = test system: M14 melanoma
[25] = test system: MOLT-4 leukemia
[26] = test system: MALME-3M melanoma
[27] = test system: DMS 114 small cell lung
[28] = test system: OVCAR-5 ovarian
[29] = test system: LXFL 529 NSCLC
[30] = test system: DLD-1 colon
[31] = test system: SNB-75 CNS
[32] = test system: DMS 273 small cell lung
[33] = test system: TK-10 renal
[34] = test system: UACC-257 melanoma
[35] = test system: M19-MEL melanoma
[36] = test system: U251 CNS
[37] = test system: OVCAR-4 ovarian
[38] = test system: SK-OV-3 ovarian
[39] = test system: HCT-116 colon
[40] = test system: SF-295 CNS
[41] = test system: SK-MEL-2 melanoma
[42] = test system: SK-MEL-28 melanoma
[43] = test system: HOP-62 NSCLC
[44] = test system: HT29 colon
[45] = test system: UO-31 renal
[46] = test system: SR leukemia
[47] = test system: SK-MEL-5 melanoma
[48] = test system: KM20L2 colon
[49] = test system: KM12 colon
[50] = test system: NCI-H23 lung
[51] = test system: HCT-15 colon
[52] = test system: HOP-92 NSCLC
[53] = test system: SW-620 colon
[54] = test system: EKVX NSCLC
[55] = test system: A498 renal
[56] = test system: HCC-2998 colon
[57] = test system: SNB-19 CNS

Measured: TGI

CC(=O)Nc1ccc(-c2nnc(SCC(=O)Nc3ccccc3)o2)cc1
> 100 µM: [1] | [2] | [3] | [4] | [5] | [6] | [7] | [8] | [9] | [10] | [11] | [12] | [13] | [14] | [15] | [16] | [17] | [18] | [19] | [20] | [21] | [22] | [23] | [24] | [25] | [26] | [27] | [28] | [29] | [30] | [31] | [32] | [33] | [34] | [35] | [36] | [37] | [38] | [39] | [40] | [41] | [42] | [43] | [44] | [45] | [46] | [47] | [48] | [49] | [50] | [51] | [52] | [53]

CCC1=C(C(C)=O)[C@@H]2CCCCC(C(=O)OC)[C@@H]2C1=O (some centres not stated)
> 100 µM: [54] | [1] | [2] | [3] | [5] | [6] | [8] | [9] | [10] | [55] | [11] | [12] | [13] | [14] | [15] | [16] | [17] | [18] | [19] | [20] | [21] | [22] | [23] | [24] | [25] | [26] | [27] | [28] | [29] | [30] | [31] | [32] | [33] | [34] | [35] | [36] | [37] | [38] | [39] | [40] | [41] | [42] | [43] | [56] | [44] | [45] | [47] | [57] | [48] | [49] | [50] | [51] | [52] | [53]
